The target of assay [1] is recombinant ceramidase from Pseudomonas aeruginosa PA01 (Pseudomonas aeruginosa, UniProt Q9I596). The assay can be described thus: Inhibition of recombinant Pseudomonas aeruginosa PA01 ceramidase, quenched fluorescent ceramide analog substrate. The assay is classed as biochemical. The following applies: for capability of inhibiting Pseudomonas aeruginosa ceramidase: known human ceramidase inhibitors, various concentrations, assay buffer containing 20 μM of substrate; for ceramidase inhibition ability, comparison in words: comparison among examples 1-9. The method, then:
The effect of various active compounds on the enzymatic activity of recombinant ceramidase from Pseudomonas aeruginosa PA01 was tested.
The assays were performed at 25° C., with magnetic stirring, using Photo Technology International fluorimeter equipped with a LPS 220 Lamp Power Supply, a 810 Photomultiplier Detector System, a MD 5020 Motor Driver, and a Dell Dimensions M166a computer with FELIX® software. Excitation was done at 346 nm (±2 nm) and the emission was measured at 378 nm (±2 nm).The assay buffer consisted of 50 mM Tris/HCl, 4 mM CaCl2, 0.1% w/v Triton X-100, pH 8.5.
The active compounds were dissolved in DMF (dimethylformamide) to a concentration of 4 mM. Of these solutions, 250 μliter was added to 50 milliliter assay buffer under vortex, yielding 20 μM lipid solutions.
To 1 mL of the lipid solution in a cuvet, 5 μL of quenched fluorescent ceramide analog as a substrate was added (end concentration 2 μM) and the system was allowed to equilibrate for 5 minutes. Then 5 μL of recombinant ceramidase was added (end concentration 4.3 nM). The reaction was allowed to proceed for 20 minutes. The slope at 378 nm was used to determine the reaction rate.
Control experiments were done in the absence of sphingolipids, with corresponding amounts of DMF (0.5% v/v for the 20 μM samples). The reaction rate of the controls was set at 100%. The percentages in the table are given as % of inhibition (control value—reaction rate of the sample).
The potential of several known human ceramidase inhibiting compounds of inhibiting Pseudomonas aeruginosa PA01 ceramidase was tested at various concentrations, in the assay buffer containing 20 μM of substrate.
The potential of several ceramide and sphingoid bases of inhibiting Pseudomonas aeruginosa PA01 ceramidase was tested at a pH of 8.5, using respectively, 2 μM and 20 μM of ceramidase substrate, 1.6 mM Triton X-100 and 4 mM of CaCl2.

The subject of assay [2] is ceramidase originating from guinea pig epidermis. The following applies: in vitro; cited from earlier work.
The target of assay [3] is T1, human alkaline ceramidase (aPHC) (Homo sapiens, UniProt Q9NUN7).
T1 construct: host or cells: yeast mutant strain (as cited)
T1 sequence (Q9NUN7 1-267): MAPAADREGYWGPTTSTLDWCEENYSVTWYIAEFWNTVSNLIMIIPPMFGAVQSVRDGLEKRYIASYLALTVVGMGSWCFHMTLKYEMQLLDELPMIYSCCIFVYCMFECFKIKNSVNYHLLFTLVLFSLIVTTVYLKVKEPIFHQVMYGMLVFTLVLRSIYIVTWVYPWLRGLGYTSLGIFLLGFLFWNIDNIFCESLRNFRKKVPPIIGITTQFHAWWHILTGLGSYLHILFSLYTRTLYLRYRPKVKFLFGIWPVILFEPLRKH
The following applies: in vitro and in cells; cited from earlier work.

Assay [4] has as its target T2, ceramidase originating from mitochondria of rat brain (Rattus norvegicus, UniProt Q91XT9).
T2 construct: host or cells: rat brain mitochondria
As to conditions: cited from earlier work.

The mark [5] stands for this setting: 20 μM active compound, pH 8.5, 25° C., 4 mM CaCl2, Triton X-100, control rate = 100%.

The inhibition is how much of the control response was suppressed.

Sequence of recombinant ceramidase from Pseudomonas aeruginosa PA01 (Q9I596 25-670): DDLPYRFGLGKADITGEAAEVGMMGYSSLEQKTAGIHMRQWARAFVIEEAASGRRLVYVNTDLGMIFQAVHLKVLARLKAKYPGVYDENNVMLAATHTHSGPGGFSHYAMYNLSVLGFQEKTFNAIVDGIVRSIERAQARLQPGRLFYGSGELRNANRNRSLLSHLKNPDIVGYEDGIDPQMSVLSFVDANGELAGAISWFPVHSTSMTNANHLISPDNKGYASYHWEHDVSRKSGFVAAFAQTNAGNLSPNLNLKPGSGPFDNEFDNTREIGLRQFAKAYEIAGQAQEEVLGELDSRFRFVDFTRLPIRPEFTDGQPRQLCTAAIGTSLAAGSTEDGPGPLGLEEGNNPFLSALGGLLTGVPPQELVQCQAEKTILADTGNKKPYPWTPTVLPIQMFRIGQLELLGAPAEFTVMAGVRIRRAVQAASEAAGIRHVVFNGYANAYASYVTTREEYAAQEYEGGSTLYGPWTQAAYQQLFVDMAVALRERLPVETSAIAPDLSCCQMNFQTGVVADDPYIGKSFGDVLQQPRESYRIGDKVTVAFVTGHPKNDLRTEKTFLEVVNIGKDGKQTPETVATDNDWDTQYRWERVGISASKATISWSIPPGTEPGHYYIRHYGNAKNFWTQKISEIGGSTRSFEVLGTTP
T2 sequence (Q91XT9 whole entry): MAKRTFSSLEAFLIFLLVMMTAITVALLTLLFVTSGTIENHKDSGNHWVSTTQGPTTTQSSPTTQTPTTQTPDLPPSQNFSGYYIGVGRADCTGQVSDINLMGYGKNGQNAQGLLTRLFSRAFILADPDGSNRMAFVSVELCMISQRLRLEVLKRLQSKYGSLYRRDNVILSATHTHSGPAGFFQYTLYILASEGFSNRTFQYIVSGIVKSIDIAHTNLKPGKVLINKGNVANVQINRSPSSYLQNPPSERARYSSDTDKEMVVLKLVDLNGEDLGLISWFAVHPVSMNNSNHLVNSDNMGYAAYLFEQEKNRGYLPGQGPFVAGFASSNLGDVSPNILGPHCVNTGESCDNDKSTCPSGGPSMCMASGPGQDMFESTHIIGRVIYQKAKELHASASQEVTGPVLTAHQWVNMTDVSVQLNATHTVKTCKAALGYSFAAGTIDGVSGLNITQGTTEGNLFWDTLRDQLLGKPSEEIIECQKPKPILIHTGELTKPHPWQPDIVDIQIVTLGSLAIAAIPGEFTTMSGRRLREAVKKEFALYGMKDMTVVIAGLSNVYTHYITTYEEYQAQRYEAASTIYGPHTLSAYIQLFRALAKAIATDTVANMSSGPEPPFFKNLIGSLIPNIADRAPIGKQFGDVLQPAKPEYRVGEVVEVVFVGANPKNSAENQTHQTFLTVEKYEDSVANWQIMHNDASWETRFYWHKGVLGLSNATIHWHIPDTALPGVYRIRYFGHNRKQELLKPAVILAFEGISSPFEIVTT

For `CCCCCCCCCCCCCCCCC(O)C(=O)N[C@@H](CO)[C@H](O)[C@H](O)CCCCCCCCCCCCCC` (stereo partly drawn) [Ceramide VI], the “% of inhibition” value in assay [1] (setting [5]) amounted to 11%.

`C[C@@H](N)[C@@H](O)c1ccccc1` [D(+)-norephenidrin, reference compound]: in assay [1], the “capability of inhibiting Pseudomonas aeruginosa ceramidase” value was “None of these compounds was found capable of inhibiting”.

Consider `CCCCCCCCCCCCCC(=O)N[C@H](C)[C@@H](O)c1ccccc1` [D-erytro-MAPP, (1S,2R)-D-erythro-2-(N-myristoylamino)-1-phenyl-1-propanol, reference compound], for which, in assay [1], the “capability of inhibiting Pseudomonas aeruginosa ceramidase” value is on record as “None of these compounds was found capable of inhibiting”.

Regarding `CCCCCCCCCCCCCCC[C@H](O)[C@H](N)CO` [D/L sphinganine], in assay [1] (setting [5]), the “% of inhibition” value is on record as 83%.

As to `CCCCCCCCCCCCC/C=C/[C@@H](O)[C@@H](N)CO` [D—erythro—sphingosine], the “% of inhibition” value in assay [1] (setting [5]) is given as 97%. In addition, the “ceramidase inhibition ability, comparison in words” value in assay [1] is “highest ceramidase inhibition ability”.

For `C[C@H](N)[C@H](O)c1ccccc1` [L(−)-norephenidrin, reference compound], in assay [1], the “capability of inhibiting Pseudomonas aeruginosa ceramidase” value was “None of these compounds was found capable of inhibiting”.

For the compound `CCCCCCCCCCCCCC(=O)N[C@@H](C)[C@H](O)c1ccccc1` [L-erythro-MAPP, reference compound], the “capability of inhibiting Pseudomonas aeruginosa ceramidase” value in assay [1] was “None of these compounds was found capable of inhibiting”.

For `CCCCCCCCCCCCC/C=C/[C@H](O)[C@H](N)CO` [L—erythro—sphingosine], the “% of inhibition” value in assay [1] (setting [5]) is reported as 20%.

As to `CCCCCCCCCCCCCC[C@@H](O)[C@@H](O)[C@H](CO)NC(C)=O` [MAPS, N-monoacetyl phytosphingosine], the “% of inhibition” value in assay [1] (setting [5]) stood at 35%.

Consider `CCCCCCCC/C=C\CCCCCCCC(=O)NCCO` [N-oleoylethanolamine, reference compound], for which, in assay [1], the “capability of inhibiting Pseudomonas aeruginosa ceramidase” value was “None of these compounds was found capable of inhibiting”.

Take `CCCCCCCCCCCCCC[C@@H](O)[C@@H](O)[C@H](CO)NC(C)=O` [N—acetyl—phytosphingosine]: the “% of inhibition” value in assay [1] (setting [5]) stood at 9%.

For `CCCCCCCCCCCCCC[C@@H](O)[C@@H](O)[C@@H](N)CO.Cl` [Phytosphingosine.HCl], the “% of inhibition” value is reported as 15% in assay [1] (2 μM active compound, pH 8.5, 25° C., 4 mM CaCl2, Triton X-100, control rate = 100%) and 67% in assay [1] (setting [5]). In addition, the “ceramidase inhibition ability, comparison in words” value in assay [1] is listed as “better ceramidase inhibiting effect than phytosphingosine”.

Turning to `CCCCCCCCCCCCCC[C@@H](O)[C@@H](O)[C@@H](N)CO` [Phytosphingosine], in assay [1] (pH 8.5, 2 μM active compound, pH 8.5, 25° C., 4 mM CaCl2, Triton X-100, control rate = 100%), the inhibition at 2 µM came to 7.5%. Besides, in assay [1] (pH 8.5, read-out: % of inhibition, 20 μM active compound, pH 8.5, 25° C., 4 mM CaCl2, Triton X-100, control rate = 100%), the inhibition at 20 µM turned out to be 60%.

As to `CCCCCCCCCCCCCCC(OC(C)=O)C(OC(C)=O)C(COC(C)=O)NC(C)=O` (stereo not drawn) [TAPS, tetraacetyl-phytosphingosine], the “% of inhibition” value in assay [1] (setting [5]) worked out at 22%.

For `CCCCCCCCCCCCC/C=C/[C@@H](O)[C@@H](N)CO` [sphingosine], the inhibition of ceramidase entry is given as “inhibiting ceramidase” in assay [2] and “capable of inhibiting ceramidase” in assay [4]. The “inhibition of human alkaline ceramidase” value in assay [3] is “inhibited by sphingosine”.

The values are drawn from patent US20030064936A1 (priority 2001, published 2003).
